Columns and labels:
[1] = target: Glutamate receptor ionotropic, kainate 2 (Homo sapiens, UniProt Q13002); assay: Displacement of [3H]-kainate from human recombinant GluK2 receptor expressed in HEK293 cell membranes after 60 mins
[2] = target: T1, Glutamate receptor ionotropic, kainate 5 (Homo sapiens, UniProt Q16478); assay: Displacement of [3H]-kainate from human recombinant GluK5 receptor expressed in HEK293 cell membranes after 60 mins
T1 sequence (Q16478 whole entry): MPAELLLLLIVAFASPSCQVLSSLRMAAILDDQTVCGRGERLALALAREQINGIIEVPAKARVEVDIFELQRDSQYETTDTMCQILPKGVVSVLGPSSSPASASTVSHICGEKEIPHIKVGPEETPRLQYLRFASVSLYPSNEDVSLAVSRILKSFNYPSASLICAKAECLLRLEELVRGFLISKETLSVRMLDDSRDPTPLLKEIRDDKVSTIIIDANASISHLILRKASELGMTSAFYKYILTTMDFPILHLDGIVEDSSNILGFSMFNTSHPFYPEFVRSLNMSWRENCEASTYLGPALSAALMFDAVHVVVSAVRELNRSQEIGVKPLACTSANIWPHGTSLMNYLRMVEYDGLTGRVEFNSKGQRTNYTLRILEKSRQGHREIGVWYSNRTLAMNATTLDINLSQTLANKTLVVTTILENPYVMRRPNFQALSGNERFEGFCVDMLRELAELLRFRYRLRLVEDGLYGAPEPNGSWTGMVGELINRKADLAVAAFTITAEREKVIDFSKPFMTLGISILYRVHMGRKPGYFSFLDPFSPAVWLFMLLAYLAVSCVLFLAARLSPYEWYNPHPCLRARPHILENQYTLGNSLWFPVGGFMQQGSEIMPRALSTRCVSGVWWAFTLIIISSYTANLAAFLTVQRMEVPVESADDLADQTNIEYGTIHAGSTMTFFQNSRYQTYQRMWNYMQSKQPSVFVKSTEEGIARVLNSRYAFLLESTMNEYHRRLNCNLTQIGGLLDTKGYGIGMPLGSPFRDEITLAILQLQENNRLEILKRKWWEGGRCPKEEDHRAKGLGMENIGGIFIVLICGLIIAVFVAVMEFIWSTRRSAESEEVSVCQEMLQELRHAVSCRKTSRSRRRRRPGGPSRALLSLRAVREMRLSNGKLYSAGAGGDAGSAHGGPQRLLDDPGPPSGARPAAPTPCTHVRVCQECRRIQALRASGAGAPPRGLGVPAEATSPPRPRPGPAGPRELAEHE

[3] = Displacement of [3H]-AMPA from AMPA receptor in rat brain membranes after 1 hr by liquid scintillation counting method; format: cell membranes, Membrane
[4] = Displacement of [3H]-kainate from kainate receptor in rat brain membranes after 1 hr by liquid scintillation counting method; format: cell membranes, Membrane
[5] = target: Glutamate receptor ionotropic, kainate 3 (Rattus norvegicus, UniProt P42264); assay: Displacement of [3H]-kainate from rat recombinant GluK3 receptor expressed in baculovirus infected insect Sf9 cell membranes after 60 mins
[6] = Displacement of [3H]-AMPA from AMPA receptor in rat brain membranes after 30 mins; format: cell membranes, Membrane
[7] = target: Glutamate receptor ionotropic, kainate 1 (Rattus norvegicus, UniProt P22756); assay: Displacement of [3H]-NF608 from rat recombinant GluK1 receptor expressed in baculovirus infected insect Sf9 cell membranes after 60 mins
[8] = Displacement of [3H]-kainate from kainate receptor in rat brain membranes after 60 mins; format: cell membranes, Membrane
[9] = organism: Rattus norvegicus; assay: Selectivity ratio of Ki for rat recombinant GluK3 receptor to Ki for rat recombinant GluK1 receptor

Sequence of Glutamate receptor ionotropic, kainate 1 (P22756 whole entry): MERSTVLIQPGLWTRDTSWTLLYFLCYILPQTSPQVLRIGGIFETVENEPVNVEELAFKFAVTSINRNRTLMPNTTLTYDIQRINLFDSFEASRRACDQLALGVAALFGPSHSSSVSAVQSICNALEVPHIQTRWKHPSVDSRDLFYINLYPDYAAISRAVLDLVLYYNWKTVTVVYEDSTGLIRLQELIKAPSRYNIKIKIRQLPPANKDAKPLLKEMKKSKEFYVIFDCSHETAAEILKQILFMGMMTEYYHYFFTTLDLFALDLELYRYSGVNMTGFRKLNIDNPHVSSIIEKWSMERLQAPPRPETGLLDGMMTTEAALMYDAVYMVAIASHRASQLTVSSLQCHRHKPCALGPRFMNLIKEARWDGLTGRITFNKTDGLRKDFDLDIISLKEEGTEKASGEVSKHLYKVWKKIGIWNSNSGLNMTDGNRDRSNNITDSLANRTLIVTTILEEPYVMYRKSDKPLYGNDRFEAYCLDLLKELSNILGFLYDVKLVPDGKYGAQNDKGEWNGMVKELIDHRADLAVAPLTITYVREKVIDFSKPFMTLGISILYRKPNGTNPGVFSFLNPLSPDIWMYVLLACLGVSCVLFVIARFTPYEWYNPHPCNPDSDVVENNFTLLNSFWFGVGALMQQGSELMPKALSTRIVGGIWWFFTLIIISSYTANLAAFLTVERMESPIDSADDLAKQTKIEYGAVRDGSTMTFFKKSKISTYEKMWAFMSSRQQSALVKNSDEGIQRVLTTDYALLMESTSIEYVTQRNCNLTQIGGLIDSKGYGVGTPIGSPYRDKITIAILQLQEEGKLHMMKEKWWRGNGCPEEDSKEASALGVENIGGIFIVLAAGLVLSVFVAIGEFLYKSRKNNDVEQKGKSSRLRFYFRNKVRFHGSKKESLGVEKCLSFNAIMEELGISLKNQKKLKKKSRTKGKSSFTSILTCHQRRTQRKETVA
Sequence of Glutamate receptor ionotropic, kainate 3 (P42264 whole entry): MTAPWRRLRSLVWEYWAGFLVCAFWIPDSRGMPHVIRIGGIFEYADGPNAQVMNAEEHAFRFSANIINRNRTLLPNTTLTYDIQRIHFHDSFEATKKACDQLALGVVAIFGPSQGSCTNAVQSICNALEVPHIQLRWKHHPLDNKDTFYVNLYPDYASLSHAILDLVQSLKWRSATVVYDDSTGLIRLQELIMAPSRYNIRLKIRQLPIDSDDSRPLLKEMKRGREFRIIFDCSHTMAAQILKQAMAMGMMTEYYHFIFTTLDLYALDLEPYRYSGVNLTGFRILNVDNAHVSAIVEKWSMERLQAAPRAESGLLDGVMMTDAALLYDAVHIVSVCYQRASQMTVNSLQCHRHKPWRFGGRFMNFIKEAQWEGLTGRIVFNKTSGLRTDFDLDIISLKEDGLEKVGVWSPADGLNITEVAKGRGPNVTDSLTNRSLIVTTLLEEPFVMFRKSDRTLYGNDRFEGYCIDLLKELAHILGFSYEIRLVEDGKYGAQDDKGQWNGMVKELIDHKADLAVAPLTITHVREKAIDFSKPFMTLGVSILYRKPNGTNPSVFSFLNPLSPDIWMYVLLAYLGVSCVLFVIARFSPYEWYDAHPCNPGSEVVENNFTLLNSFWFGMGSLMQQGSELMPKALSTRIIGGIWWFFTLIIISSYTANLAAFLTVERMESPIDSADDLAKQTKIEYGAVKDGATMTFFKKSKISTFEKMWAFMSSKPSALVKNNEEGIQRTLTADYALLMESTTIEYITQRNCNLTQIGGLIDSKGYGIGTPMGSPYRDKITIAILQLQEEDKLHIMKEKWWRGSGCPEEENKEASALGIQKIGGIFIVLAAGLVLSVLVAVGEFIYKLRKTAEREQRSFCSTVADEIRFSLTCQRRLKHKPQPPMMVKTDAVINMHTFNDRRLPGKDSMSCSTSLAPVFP
Sequence of Glutamate receptor ionotropic, kainate 2 (Q13002 whole entry): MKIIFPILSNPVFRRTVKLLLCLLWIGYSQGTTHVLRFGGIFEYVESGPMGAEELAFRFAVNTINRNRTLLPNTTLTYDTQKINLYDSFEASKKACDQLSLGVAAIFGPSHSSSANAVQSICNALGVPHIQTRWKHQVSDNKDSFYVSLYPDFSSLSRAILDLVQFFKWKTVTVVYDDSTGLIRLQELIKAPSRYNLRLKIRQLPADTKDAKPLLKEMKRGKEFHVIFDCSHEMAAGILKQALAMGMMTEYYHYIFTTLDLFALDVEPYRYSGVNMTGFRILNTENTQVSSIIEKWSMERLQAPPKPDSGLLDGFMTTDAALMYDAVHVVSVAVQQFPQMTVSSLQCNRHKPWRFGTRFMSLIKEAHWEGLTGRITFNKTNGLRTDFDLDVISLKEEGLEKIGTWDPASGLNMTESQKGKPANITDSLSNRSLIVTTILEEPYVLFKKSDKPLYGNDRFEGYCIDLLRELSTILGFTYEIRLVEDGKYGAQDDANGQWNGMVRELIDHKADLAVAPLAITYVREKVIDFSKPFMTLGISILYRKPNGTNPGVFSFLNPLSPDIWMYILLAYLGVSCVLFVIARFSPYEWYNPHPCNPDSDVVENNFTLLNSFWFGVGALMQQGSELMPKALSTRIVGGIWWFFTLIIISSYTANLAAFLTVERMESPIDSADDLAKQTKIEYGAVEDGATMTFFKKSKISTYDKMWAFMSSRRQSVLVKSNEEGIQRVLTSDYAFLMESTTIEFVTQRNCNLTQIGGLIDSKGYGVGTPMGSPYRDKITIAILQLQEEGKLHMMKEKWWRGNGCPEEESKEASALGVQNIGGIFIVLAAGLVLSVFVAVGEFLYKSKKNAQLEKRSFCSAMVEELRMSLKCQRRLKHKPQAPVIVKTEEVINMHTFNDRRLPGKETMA

Question: For `O=C(O)[C@@H]1C[C@H]2C[C@@H](CN3CC(F)(F)C[C@H]3C(=O)O)CC[C@H]2CN1`, which Ki [1] is on record?
Answer: 0.05 µM

Question: And the Ki [2]?
Answer: 8.9 µM

Question: With `CC(C)(C)c1onc(OCP(=O)(O)O)c1C[C@H](N)C(=O)O` as the compound, how does the IC50 [3] read?
Answer: 16 µM

Question: What about the IC50 [4] of the same compound?
Answer: > 100 µM

Question: And the Ki [5]?
Answer: > 1000 µM

Question: Which Ki [5] does the source give for `NC(Cc1cc(Cl)c(Cl)c(-c2cccc(C(=O)O)c2)c1)C(=O)O` (centres undefined) here?
Answer: > 100 µM

Question: For `NC(Cc1cccc(-c2cccc(C(=O)O)c2)c1)C(=O)O` (centres undefined), which Ki [5] is on record?
Answer: > 100 µM

Question: For `NC(Cc1cc(Cl)cc(-c2cccc(C(=O)O)c2)c1)C(=O)O` (racemic), which Ki [6] is on record?
Answer: 51 µM

Question: And the pKi [6]?
Answer: 4.31

Question: And the Ki ([7]; read-out: Ki)?
Answer: 5.7 µM

Question: And the Ki ([7]; read-out: pKi (converted))?
Answer: 5.5 µM

Question: And the Ki [8]?
Answer: > 100 µM

Question: And the Ki [5]?
Answer: 25 µM

Question: Which results are given for `Nc1ccc(CC(N)C(=O)O)cc1-c1cccc(C(=O)O)c1` (racemic)?
Answer: Ki [6]: > 100 µM; Ki ([7]; read-out: Ki): 26 µM; Ki [8]: > 100 µM; Ki [5]: > 100 µM

Question: For `NC(Cc1ccc(Cl)c(-c2cccc(C(=O)O)c2)c1)C(=O)O` (racemic), which Ki [6] is on record?
Answer: > 100 µM

Question: And the Ki ([7]; read-out: Ki)?
Answer: 35 µM

Question: What about the Ki [8] of the same compound?
Answer: > 100 µM

Question: What about the Ki [5] of the same compound?
Answer: > 100 µM

Question: Which Ki [6] does the source give for `Nc1c(Cl)cc(CC(N)C(=O)O)cc1-c1cccc(C(=O)O)c1` (racemic) here?
Answer: 100 µM

Question: And the Ki ([7]; read-out: Ki)?
Answer: 4.9 µM

Question: What about the Ki ([7]; read-out: pKi (converted)) of the same compound?
Answer: 4.68 µM

Question: And the Ratio Ki [9]?
Answer: 20

Question: What about the Ki [8] of the same compound?
Answer: > 100 µM

Question: And the Ki [5]?
Answer: > 100 µM

Question: With `NC(Cc1cc(-c2cccc(C(=O)O)c2)cc([N+](=O)[O-])c1)C(=O)O` (racemic) as the compound, how does the Ki [6] read?
Answer: 38 µM

Question: What about the pKi [6] of the same compound?
Answer: 4.43

Question: What about the Ki ([7]; read-out: Ki) of the same compound?
Answer: 32 µM

Question: And the Ki [8]?
Answer: > 100 µM

Question: And the Ki [5]?
Answer: > 100 µM

Question: Which Ki [6] does the source give for `NC(Cc1cc(-c2cccc(C(=O)O)c2)c(Cl)c([N+](=O)[O-])c1)C(=O)O` (racemic) here?
Answer: 62 µM

Question: What about the pKi [6] of the same compound?
Answer: 4.21

Question: What about the Ki ([7]; read-out: Ki) of the same compound?
Answer: 6.1 µM

Question: And the Ki ([7]; read-out: pKi (converted))?
Answer: 5.89 µM

Question: What about the Ki [8] of the same compound?
Answer: 32 µM

Question: And the pKi [8]?
Answer: 4.5

Question: What about the Ki [5] of the same compound?
Answer: > 100 µM

Question: What does the source list for `NC(Cc1ccc([N+](=O)[O-])c(-c2cccc(C(=O)O)c2)c1)C(=O)O` (racemic)?
Answer: Ki [6]: 65 µM; pKi [6]: 4.19; Ki ([7]; read-out: Ki): 7.2 µM; Ki [8]: > 100 µM; Ki [5]: 23 µM

Question: Which results are given for `Nc1c(-c2cccc(C(=O)O)c2)cc(CC(N)C(=O)O)cc1[N+](=O)[O-]` (racemic)?
Answer: Ki [6]: > 100 µM; Ki ([7]; read-out: Ki): 7.5 µM; Ki ([7]; read-out: pKi (converted)): 7.08 µM; Ki [8]: > 100 µM; Ki [5]: > 100 µM

Question: Which results are given for `NC(Cc1cc(Cl)c(O)c(-c2cccc(C(=O)O)c2)c1)C(=O)O` (racemic)?
Answer: Ki [6]: > 100 µM; Ki ([7]; read-out: Ki): 5.5 µM; Ratio Ki [9]: 2; Ki [8]: > 100 µM; Ki [5]: 11 µM
